The values below come from US12187723B2 (BRISTOL-MYERS SQUIBB COMPANY, priority 2019, dated 2025).

One test deals with T1, human TLR7 (Homo sapiens, UniProt Q9NYK1).
T1 construct: host or cells: HEK-Blue cells
T1 sequence (Q9NYK1 27-1049): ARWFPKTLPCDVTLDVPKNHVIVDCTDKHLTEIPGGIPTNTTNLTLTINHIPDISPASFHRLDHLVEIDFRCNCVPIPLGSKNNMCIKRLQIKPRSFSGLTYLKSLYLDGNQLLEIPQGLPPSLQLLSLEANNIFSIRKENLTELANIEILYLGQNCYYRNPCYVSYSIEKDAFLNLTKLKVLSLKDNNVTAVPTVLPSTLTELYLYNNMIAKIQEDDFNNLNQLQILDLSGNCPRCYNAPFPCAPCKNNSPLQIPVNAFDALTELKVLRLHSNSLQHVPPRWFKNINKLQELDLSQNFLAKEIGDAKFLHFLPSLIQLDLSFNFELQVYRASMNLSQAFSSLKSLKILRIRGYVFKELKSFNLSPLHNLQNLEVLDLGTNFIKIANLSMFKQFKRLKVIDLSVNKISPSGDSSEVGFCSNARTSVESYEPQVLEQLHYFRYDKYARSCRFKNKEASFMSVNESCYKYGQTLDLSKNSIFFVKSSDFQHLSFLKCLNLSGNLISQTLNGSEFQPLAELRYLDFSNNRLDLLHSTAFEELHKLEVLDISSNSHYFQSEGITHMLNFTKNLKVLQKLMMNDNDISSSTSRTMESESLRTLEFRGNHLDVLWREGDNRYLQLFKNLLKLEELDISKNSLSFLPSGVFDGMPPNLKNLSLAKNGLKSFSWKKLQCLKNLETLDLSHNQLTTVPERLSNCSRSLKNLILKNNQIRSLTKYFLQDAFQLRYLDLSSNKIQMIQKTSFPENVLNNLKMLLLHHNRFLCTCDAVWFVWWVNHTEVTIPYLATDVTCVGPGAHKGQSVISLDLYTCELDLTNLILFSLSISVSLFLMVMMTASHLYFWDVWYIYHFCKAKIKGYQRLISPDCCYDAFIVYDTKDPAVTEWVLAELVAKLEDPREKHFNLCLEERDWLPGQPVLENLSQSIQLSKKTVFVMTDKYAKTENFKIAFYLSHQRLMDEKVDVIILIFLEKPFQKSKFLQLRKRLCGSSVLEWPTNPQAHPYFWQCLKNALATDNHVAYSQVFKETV
Briefly: TLR7 inhibition reporter assay (HEK-Blue SEAP). In kind it is cell-based. To be noted: HEK-Blue cells overexpressing human TLR7, gardiquimod 7.5 μM, 22 hour incubation. Put shortly: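 In this cell reporter format, test compounds at 0.05 nM-50 μM final incubate 22 h with seeded cells (TLR7 15000, TLR8 20,000 per well). SEAP read-out by HEK-Blue Detection medium yields % inhibition relative to agonist/DMSO and known-inhibitor wells.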
(In general: In a reporter assay the amount or activity of a reporter protein is the signal.)

A further test addresses T2, human TLR9 (Homo sapiens, UniProt Q9NR96).
T2 construct: host or cells: HEK-Blue cells
T2 sequence (Q9NR96 26-1032): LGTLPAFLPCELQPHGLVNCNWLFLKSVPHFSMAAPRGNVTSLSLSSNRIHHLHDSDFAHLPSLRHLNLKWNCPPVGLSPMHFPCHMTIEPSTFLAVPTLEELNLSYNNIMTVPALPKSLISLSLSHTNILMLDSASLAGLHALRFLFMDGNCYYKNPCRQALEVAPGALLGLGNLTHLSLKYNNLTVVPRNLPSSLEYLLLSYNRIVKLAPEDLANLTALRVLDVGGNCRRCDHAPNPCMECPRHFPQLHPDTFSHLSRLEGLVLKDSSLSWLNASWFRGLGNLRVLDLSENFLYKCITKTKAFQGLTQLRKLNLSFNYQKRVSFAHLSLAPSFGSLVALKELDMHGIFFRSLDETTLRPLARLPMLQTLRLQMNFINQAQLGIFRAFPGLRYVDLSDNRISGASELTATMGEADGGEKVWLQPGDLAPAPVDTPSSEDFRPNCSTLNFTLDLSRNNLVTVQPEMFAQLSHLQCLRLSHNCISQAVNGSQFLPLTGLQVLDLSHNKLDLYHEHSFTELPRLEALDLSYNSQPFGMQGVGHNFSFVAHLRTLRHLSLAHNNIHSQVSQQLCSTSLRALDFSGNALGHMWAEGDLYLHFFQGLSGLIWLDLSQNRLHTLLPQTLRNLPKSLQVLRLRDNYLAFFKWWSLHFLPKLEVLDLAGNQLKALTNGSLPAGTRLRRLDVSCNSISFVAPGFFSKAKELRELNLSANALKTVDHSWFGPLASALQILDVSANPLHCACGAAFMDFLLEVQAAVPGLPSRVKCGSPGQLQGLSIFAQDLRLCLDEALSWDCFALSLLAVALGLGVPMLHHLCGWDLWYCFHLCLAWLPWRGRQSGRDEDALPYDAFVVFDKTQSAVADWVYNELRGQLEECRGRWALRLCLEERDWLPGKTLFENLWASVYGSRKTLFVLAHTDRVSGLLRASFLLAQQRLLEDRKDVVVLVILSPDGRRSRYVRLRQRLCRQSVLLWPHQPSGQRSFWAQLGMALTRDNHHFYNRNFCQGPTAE
Briefly: TLR9 inhibition reporter assay (HEK-Blue SEAP). In kind it is cell-based. To be noted: HEK-Blue cells overexpressing human TLR9, ODN2006 5 nM, 22 hour incubation. Put shortly:
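Dose–response from 0.05 nM to 50 μM was run in HEK-Blue human TLR7, TLR8 and TLR9 reporter cells. After 30 min at room temperature with compound, ligand was added (TLR7 gardiquimod 7.5 μM; TLR8 R848 15.9 μM; TLR9 ODN2006 5 nM) and SEAP measured next day, at 22 h.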

Regarding `COc1cc(-c2cc3[nH]c(=O)n(C4CCC(N5CC(O)(C(F)(F)F)C5)CC4)c3cc2C(C)C)cn2ncnc12` (single isomer, unassigned) [Example 242, 1-(4-(3-hydroxy-3-(trifluoromethyl)azetidin-1-yl)cyclohexyl)-6-isopropyl-5-(8-methoxy-[1,2,4]triazolo[1,5-a]pyridin-6-yl)-1,3-dihydro-2H-benzo[d]imidazol-2-one], the IC50 was 10.4 nM at human TLR7 and 23700 nM against human TLR9.

With `COc1cc(-c2cc3[nH]c(=O)n([C@@H]4CCCN(C5CCCOC5)C4)c3cc2C(C)C)cn2ncnc12` (single isomer, unassigned) [Example 218], the results for the IC50 on human TLR7 and against human TLR9 were 5.33 nM and 24200 nM, respectively.

`COc1c(C)c(-c2cc3[nH]c(=O)n(C4CCC(N5CCC(F)(F)CC5)CC4)c3cc2C(C)C)cn2ncnc12` (single isomer, unassigned) [Example 230, 1-(4-(4,4-difluoropiperidin-1-yl)cyclohexyl)-6-isopropyl-5-(8-methoxy-7-methyl-[1,2,4]triazolo[1,5-a]pyridin-6-yl)-1,3-dihydro-2H-benzo[d]imidazol-2-one]: the half-inhibitory concentration (IC50) is 60.3 nM on human TLR7 and above 50000 nM at human TLR9.

Regarding `Cc1c(-c2cc3[nH]c(=O)n([C@H]4CC[C@@H](NC5CCOCC5)CC4)c3cc2C(C)C)cn2ncnc2c1C` [Example 187, 5-(7,8-dimethyl-[1,2,4]triazolo[1,5-a]pyridin-6-yl)-6-isopropyl-1-((1s,4s)-4-((tetrahydro-2H-pyran-4-yl)amino)cyclohexyl)-1,3-dihydro-2H-benzo[d]imidazol-2-one], the IC50 against human TLR7 stood at 4.09 nM; at human TLR9, 12800 nM.

Regarding `Cc1c(-c2cc3[nH]c(=O)n([C@H]4CC[C@@H](NC5COC5)CC4)c3cc2C(C)C)cn2ncnc2c1C` [Example 188, 5-(7,8-dimethyl-[1,2,4]triazolo[1,5-a]pyridin-6-yl)-6-isopropyl-1-((1s,4s)-4-(oxetan-3-ylamino)cyclohexyl)-1,3-dihydro-2H-benzo[d]imidazol-2-one], the half-inhibitory concentration (IC50) turned out to be 7.14 nM at human TLR7 and 22200 nM at human TLR9.

For `CCN[C@H]1CC[C@@H](n2c(=O)[nH]c3cc(-c4cn5ncnc5c(C)c4C)c(C(C)C)cc32)CC1` [Example 189, 5-(7,8-dimethyl-[1,2,4]triazolo[1,5-a]pyridin-6-yl)-1-((1s,4s)-4-(ethylamino)cyclohexyl)-6-isopropyl-1,3-dihydro-2H-benzo[d]imidazol-2-one], the 50% inhibitory concentration (IC50) is 9.82 nM against human TLR7 and above 50000 nM on human TLR9.

With `CCc1cc2c(cc1-c1cc(OC)c3ncnn3c1)[nH]c(=O)n2[C@@H]1CCCN(C2COC2)C1` [Example 173, (R)-6-ethyl-5-(8-methoxy-[1,2,4]triazolo[1,5-a]pyridin-6-yl)-1-(1-(oxetan-3-yl)piperidin-3-yl)-1,3-dihydro-2H-benzo[d]imidazol-2-one], the IC50 on human TLR7 was 32 nM; on human TLR9, above 50000 nM.

For `CCc1cc2c(cc1-c1cc(OC)c3ncnn3c1)[nH]c(=O)n2[C@H]1CC[C@@H](NC2COC2)CC1` [Example 170, 6-ethyl-5-(8-methoxy-[1,2,4]triazolo[1,5-a]pyridin-6-yl)-1-((1s,4s)-4-(oxetan-3-ylamino)cyclohexyl)-1,3-dihydro-2H-benzo[d]imidazol-2-one], the figures for the concentration for half-maximal inhibition (IC50) against human TLR7 and on human TLR9 were 6.25 nM and 20000 nM, respectively.

With `COc1cc(-c2cc3[nH]c(=O)n([C@H]4CC[C@H](NCC(C)C)CC4)c3cc2C(C)C)cn2ncnc12` [Example 204, 1-((1r,4s)-4-(isobutylamino)cyclohexyl)-6-isopropyl-5-(8-methoxy-[1,2,4]triazolo[1,5-a]pyridin-6-yl)-1,3-dihydro-2H-benzo[d]imidazol-2-one], the IC50 is 3.21 nM at human TLR7 and 11700 nM on human TLR9.

As to `CCc1cc2c(cc1-c1cc(OC)c3ncnn3c1)[nH]c(=O)n2[C@@H]1CCCN(C2CCOC2)C1` (stereo partly drawn) [Example 213, 6-ethyl-5-(8-methoxy-[1,2,4]triazolo[1,5-a]pyridin-6-yl)-1-((3R)-1-(tetrahydrofuran-3-yl)piperidin-3-yl)-1,3-dihydro-2H-benzo[d]imidazol-2-one], the IC50 on human TLR7 was 37.3 nM; against human TLR9, above 50000 nM.

For `COc1cc(-c2cc3[nH]c(=O)n(C4CCC(N5CCCC5)CC4)c3cc2C(C)C)cn2ncnc12` (stereo not drawn) [Example 231, 6-isopropyl-5-(8-methoxy-[1,2,4]triazolo[1,5-a]pyridin-6-yl)-1-(4-(pyrrolidin-1-yl)cyclohexyl)-1,3-dihydro-2H-benzo[d]imidazol-2-one], the IC50 worked out at 1.68 nM against human TLR7 and 15100 nM against human TLR9.

`Cc1cc2c(cc1-c1cc(C)c3ncnn3c1)[nH]c(=O)n2[C@@H]1CCCN(C)C1` [Example 15, (R)-6-methyl-5-(8-methyl-[1,2,4]triazolo[1,5-a]pyridin-6-yl)-1-(1-methylpiperidin-3-yl)-1,3-dihydro-2H-benzo[d]imidazol-2-one]: the 50% inhibitory concentration (IC50) against human TLR7 worked out at 24.6 nM; against human TLR9 it was 5940 nM.

In the case of `COc1cc(-c2cc3[nH]c(=O)n([C@H]4CC[C@@H](N(C)C)CC4)c3cc2C(C)C)cn2ncnc12` [Example 191, 1-((1s,4s)-4-(dimethylamino)cyclohexyl)-6-isopropyl-5-(8-methoxy-[1,2,4]triazolo[1,5-a]pyridin-6-yl)-1,3-dihydro-2H-benzo[d]imidazol-2-one], the half-inhibitory concentration (IC50) came to 1.49 nM against human TLR7 and 11700 nM against human TLR9.

For the compound `COc1cc(-c2cc3[nH]c(=O)n(C4CCC(N5CC(OC)C5)CC4)c3cc2C(C)C)cn2ncnc12` (stereo not drawn) [Example 237, 6-isopropyl-5-(8-methoxy-[1,2,4]triazolo[1,5-a]pyridin-6-yl)-1-(4-(3-methoxyazetidin-1-yl)cyclohexyl)-1,3-dihydro-2H-benzo[d]imidazol-2-one], the 50% inhibitory concentration (IC50) on human TLR7 stood at 1.31 nM; at human TLR9 it was 11300 nM.

Turning to `COc1cc(-c2cc3[nH]c(=O)n([C@H]4CC[C@H](N(CC5CC5)CC5CC5)CC4)c3cc2C(C)C)cn2ncnc12` [Example 206, 1-((1r,4s)-4-(bis(cyclopropylmethyl)amino)cyclohexyl)-6-isopropyl-5-(8-methoxy-[1,2,4]triazolo[1,5-a]pyridin-6-yl)-1,3-dihydro-2H-benzo[d]imidazol-2-one], the IC50 against human TLR7 came to 1.3 nM; against human TLR9, 6530 nM.

The IC50 is the concentration at which inhibition is half-maximal. Read a low IC50 as inhibition by little substance.
